Patent publication EP0416604A2, “PAF-antagonists for the preparation of a medicament, useful for the treatment of heart diseases, caused by diminished beta-receptor-stimulation” (Dr. Karl Thomae GmbH, priority 1989, dated 1991)

Key:
Maus = conditions: p.o., acute toxicity; cited from earlier work
cardialen β-Rezeptoren = experiment: LV-dP/dtmax (cardiac contractility) response to isoprenaline in anaesthetised, despinalised rats before and after PAF infusion; type: in vivo, Ratten; design: Steigerung von LV-dP/dtmax durch Isoprenalin (Ansprechbarkeit der cardialen β-Rezeptoren): dose or concentration left out as unconfirmed; conditions: for Steigerung LV-dP/dtmax: despinalised rats, n=6, control before PAF
Protocol: Die neu aufgefundene Wirkung der PAF-Antagonisten wurde beispielsweise an B = 4-(2-Chlorphenyl)-9-methyl-2-[3-(4-morpholinyl)-3-propanon-1-yl]-6H-thieno[3.2-f][1.2.4]triazolo[4.3-a][1.4]-diazepin wie folgt geprüft: Männliche Ratten (Chbb:THOM, ca. 300 g) werden mit Hexobarbital-Natrium (150 mg/kg i.p.) narkotisiert. Die Trachea wird kannuliert und danach werden die Tiere despinalisiert. Die Tiere werden künstlich beatmet und mittels einem Heizkissen auf 37°C gehalten. Zur Messung des linksventrikulärem Drucks wird über die Arteria Carotis in den linken Ventrikel ein Millar Tipmanometer geschoben. Dieses Signal wird elektronisch differentiert und ist als LV-dP/dtmax ein Maß für die Kontraktionskraft des Herzes. Über einen Katheter in der anderen Arteria Carotis wird der arterielle Blutdruck gemessen. Die zu untersuchenden Substanzen werden intravenös über eine Kanüle in der Vena jugularis injiziert.
Isoprenalin (3-100 ng/kg) steigert dosisabhänig LV-dP/dtmax von 300 ± 90 bis 4450 ± 290 mm Hg/s (n=6). Nach einer 45-minütigen Infusion von PAF (50-100 ng/kg/min.) wurde wieder Isoprenalin (3 bis 100 ng/kg) injiziert. […] Dann wurde die Substanz B (10 mg/kg i.v.) verabreicht und nach 10 Minuten wurde wieder Isoprenalin injiziert.

## Cc1nnc2n1-c1sc3c(c1C(c1ccccc1Cl)=NC2)CC(C(=O)N1CCOCC1)C3 (single isomer, unassigned; (-)) [Substanz A, (-)-6-(2-Chlorphenyl)-8,9-dihydro-1-methyl-8-[(4-morpholinyl)carbonyl]-4H,7H-cyclopenta[4.5]thieno[3,2-f][1.2.4]triazolo[4.3-a][1.4]diazepin]
Maus
  LD₅₀: 1960 mg/kg

## CC(C)NCC(O)c1ccc(O)c(O)c1 (stereo not drawn) [Isoprenalin]
Cardialen β-Rezeptoren; Isoprenalin 3 ng/kg i.v. (lower end of dose range 3-100 ng/kg)
  Steigerung LV-dP/dtmax: 300 ± 90 mm Hg/s
Cardialen β-Rezeptoren; Isoprenalin 100 ng/kg i.v. (upper end of dose range 3-100 ng/kg)
  Steigerung LV-dP/dtmax: 4450 ± 290 mm Hg/s

## CCCCCCCCCCCCCCCCOCC(COP(=O)([O-])OCC[N+](C)(C)C)OC(C)=O (stereo not drawn) [PAF]
Cardialen β-Rezeptoren; after 45 min infusion of PAF 50-100 ng/kg/min, rats
  Effekte von 3 und 10 ng/kg Isoprenalin (LV-dP/dtmax): nicht beeinflußt
Cardialen β-Rezeptoren; effect of PAF on Dimaprit 1-10 mg/kg
  positiv inotrope Wirkung von dem Histamin-2 Agonist Dimaprit: absolut nicht beeinflußt
Cardialen β-Rezeptoren; effect of PAF on Forskolin 3-20 µg/kg
  positiv inotrope Wirkung von dem Adenylcyclase Aktivator Forskolin: absolut nicht beeinflußt

## Cc1nnc2n1-c1sc(CCC(=O)N3CCOCC3)cc1C(c1ccccc1Cl)=NC2 [Substanz B, 4-(2-Chlorphenyl)-9-methyl-2-[3-(4-morpholinyl)-3-propanon-1-yl]-6H-thieno[3.2-f][1.2.4]triazolo[4.3-a][1.4]diazepin]
Cardialen β-Rezeptoren; isoprenaline injected again after 10 min, responsiveness fully restored, rats
  Steigerung von LV-dP/dtmax durch Isoprenalin (Ansprechbarkeit der cardialen β-Rezeptoren): nicht signifikant unterschiedlich von den Kontrollwerten
Maus
  LD₅₀: 4600 mg/kg

## CCCN(CCC)C(=O)C1Cc2sc3c(c2C1)C(c1ccccc1Cl)=NCc1nnc(C)n1-3 (stereo not drawn) [Substanz C]
Maus
  LD₅₀: 1700 mg/kg
